Source: US6423519B1, “Compositions and methods for inhibiting fungal growth” (GPC Biotech Inc., priority 1998, dated 2002)
Where two headings read alike, the source gives them in different places.

Experiments:
[1] = molecular target: Hu FT (Homo sapiens, UniProt P49356); experiment: Human FT inhibition (Hu FT); type: biochemical; conditions: Table 3 Piperidine Analogs
[2] = molecular target: human GGTase (Homo sapiens, UniProt P53609); experiment: Human GGTase inhibition (Hu GG); type: biochemical; conditions: read-out: IC50 (nM) Hu GG
Excerpt: As described below, a variety of different compounds were synthesized and tested for inhibitory activity against human and Candida GGTase. Exemplary synthesis schemes for generating prenyltransferase inhibitors useful in the methods and compositions of the present invention are shown in FIGS. 1-56. Tables 1-5 provide Structure-Activity relationship (SAR) data for several different classes of prenyltransferase inhibitors.

[3] = molecular target: T1, C. albicans GGPTase (Candida albicans, UniProt Q8J224+Q9Y764); experiment: biochemical; conditions: read-out: IC50 (nM) Ca GG
T1 sequence (Q9Y764 1-398): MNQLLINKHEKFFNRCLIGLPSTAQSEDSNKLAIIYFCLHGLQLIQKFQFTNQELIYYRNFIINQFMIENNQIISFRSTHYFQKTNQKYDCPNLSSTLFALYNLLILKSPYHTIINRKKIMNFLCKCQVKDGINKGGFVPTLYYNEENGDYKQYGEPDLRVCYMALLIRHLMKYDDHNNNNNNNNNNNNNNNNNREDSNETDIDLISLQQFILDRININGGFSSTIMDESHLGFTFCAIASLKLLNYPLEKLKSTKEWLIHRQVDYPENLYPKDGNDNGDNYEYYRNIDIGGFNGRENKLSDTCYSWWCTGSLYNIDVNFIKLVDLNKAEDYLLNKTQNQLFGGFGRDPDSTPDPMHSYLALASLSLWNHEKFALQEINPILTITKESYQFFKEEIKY
T1 sequence (Q8J224 1-306): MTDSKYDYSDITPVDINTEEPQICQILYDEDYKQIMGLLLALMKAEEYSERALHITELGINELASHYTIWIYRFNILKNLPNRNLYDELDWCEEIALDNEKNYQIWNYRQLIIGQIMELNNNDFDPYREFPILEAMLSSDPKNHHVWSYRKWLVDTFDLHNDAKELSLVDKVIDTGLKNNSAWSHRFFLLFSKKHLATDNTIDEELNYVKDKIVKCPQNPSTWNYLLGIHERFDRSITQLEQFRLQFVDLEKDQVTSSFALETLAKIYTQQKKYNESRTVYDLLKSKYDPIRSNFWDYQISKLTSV
Experimental: Plate test compounds (10 μL per well) at predetermined concentration in 50% DMSO. For background control (blank) and reaction control (negative), add 10 μL of 200 μM GGPP and 10 μL 50% DMSO, respectively. Prepare assay buffer: 50 mM Tris, pH7.5, 20 mM KCL, 5 mM MgCl2, 5 μM ZnCl2, 0.5 mM Zw(3-14), 2 mM DTT and 0.1 mg/mL BSA.
Add 20 μL of C. albicans GGPTase and ^3H-GGPP in assay buffer to test compound. Preincubate enzyme and ^3H-GGPP with test compound for 15 minutes at room temperature. Add 20 μL C. albicans Rho in assay buffer. Incubate for 30 minutes at room temperature. Final assay conditions are 2 nM C. albicans GGPTase, 250 nM ^3H-GGPP and 250 nM C. albicans Rho.
Add 100 μL 15 mM GGPP, 50 mM Tris, pH7.0 and 2% BSA to quench reaction. Transfer reaction to Nickel chelate FlashPlate. Allow his-tagged C. albcians Rho to capture onto plate. Rinse plate 1× with 200 μL 20 mM Tris, pH7.0. Read in TOPCOUNT.

[4] = tested on: Cryp GG; experiment: Cryp GG inhibition; type: biochemical
[5] = tested on: Asp GG; experiment: Asp GG inhibition; type: biochemical
[6] = tested on: C. albicans; experiment: In vitro susceptibility testing of compounds in C. albicans (MIC); type: cell-based; conditions: for MIC: Candida albicans, read-out: MIC (μg/mL) C alb; for MIC (μg/mL) C alb: Table 1
Experimental: 1: Innoculate strain C. albicans strain such as SC5314 into 20 mL of the appropriate medium and incubate at 35° C. with shaking (220 rpm) overnight
2: Count the C. albicans cells in a 1:10 dilution of the overnight culture using a haemocytometer.
3: Work out the dilution factor required to bring the cell number to 1×10^3 cells/100 μL (equivalent to 1×10^4 cells/mL) then add the required volume of the overnight culture to 25 mL media in a falcon tube.
4: Vortex the diluted cells and immediately pipette 100 μL of the cell suspension to each of the required rows of a 96 well plate using the multipipettor.
5: Prepare each of the 100×stock solutions for the compounds to be tested in DMSO in the required concentration range in Eppendorf tubes.
6: The dilution series for each of the compounds may now be prepared in sequence:
For each compound—start with highest dilution. Add 10 μL compound in DMSO to the 490 μL of appropriate media. Immediately vortex and add 100 μL to the appropraite row of cells on the 96-well plate. Repeat this process for the next and subsequent concentrations of this compound before starting on the dilution series for additional compounds.
7: When complete cover the 96-well plate with an acetate sheet and incubate at 35° C. Inspect visually and record results for both plates at the 24 hr and 48 hr. The MIC corresponds to the concentration of compound where no visible growth is observed.

[7] = tested on: IMR90 Cell Line; experiment: Cytotoxicity of GGPTase inhibitors in human cells, IMR90 (MTT); type: cell-based; conditions: IMR-90, 168 h, read-out: IC50 (nM) IMR90
Experimental: (§1) (A) Plate out cells at predetermined concentration in a volume of 150 μl.
(§2) (B) Allow cells to adhere to plate for twenty four hours
(§3) (C) Add compounds to cells at predetermined concentration (62.5 μg/mL down four-fold, 8 dilutions) n=2
(§4) (D) Cells are exposed to drug for 7 days for the IMR90 Cell Line, and a period of 3 days for the H460 Cell Line.
2. IMR90 Cells have 3-{4,5-Dimethylthiazol-2-yl}-2,5-diphenyltetrazolium bromide (MTT) added to them for three hours prior to final read out. After the three hours, media and MTT are removed and MTT crystals are solubilized in 100% DMSO for final OD read.

[8] = tested on: H460 Cell Line; experiment: Cytotoxicity of GGPTase inhibitors in human cells, H460 (Sulforhodamine B); type: cell-based; conditions: NCI-H460, 72 h, read-out: IC50 (nM) H460
Experimental: as §1, §2, §3, §4
(E) 1. H460 Cells are fixed in TCA, rinsed, stained with Sulforhodamine B stain, and the stain is solubilized for a final OD read.

Structure (SMILES)	IC50 [1]	IC50 ([2]; Table 3 Piperidine Analogs)	IC50 ([3]; Table 3 Piperidine Analogs)	also measured
N[C@@H](CS)C(=O)N1CCC(C(=O)NCc2cccc(-c3ccccc3)c2)(c2ccccc2)CC1 [Compound 53e]	> 1000 nM	> 1000 nM	< 100 nM	–
N[C@@H](CS)C(=O)N1CCC(C(=O)NCCCN2CCOCC2)(c2ccccc2)CC1 [Compound 53f]	> 1000 nM	> 1000 nM	< 500 nM	IC50 ([4]; Table 3 Piperidine Analogs): > 1000 nM; IC50 ([5]; Table 3 Piperidine Analogs): > 1000 nM
N[C@@H](CS)C(=O)N1CCC(C(=O)NCCN2CCCC2)(c2ccccc2)CC1 [Compound 53g]	> 1000 nM	> 1000 nM	< 100 nM	–
N[C@@H](CS)C(=O)N1CCC(C(=O)NCc2nc3ccccc3[nH]2)(c2ccccc2)CC1 [Compound 53h]	> 1000 nM	> 1000 nM	< 100 nM	–
CC(C)C[C@H](NC(=O)C1(c2ccccc2)CCN(C(=O)[C@@H](N)CS)CC1)C(N)=O [Compound 53i]	> 1000 nM	< 100 nM	< 100 nM	–
N[C@@H](CS)C(=O)N1CCC(C(=O)NCCCn2ccnc2)(c2ccccc2)CC1 [Compound 53j]	> 1000 nM	> 1000 nM	< 100 nM	–
N[C@@H](CS)C(=O)N1CCC(C(=O)NCc2ccncc2)(c2ccccc2)CC1 [Compound 53k]	> 1000 nM	> 1000 nM	< 10 nM	IC50 ([4]; Table 3 Piperidine Analogs): > 1000 nM; IC50 ([5]; Table 3 Piperidine Analogs): > 1000 nM
N#CC1CCC(CNC(=O)C2(c3ccccc3)CCN(C(=O)[C@@H](N)CS)CC2)CC1 (stereo partly shown) [Compound 53n]	> 1000 nM	> 1000 nM	< 100 nM	–
N[C@@H](CS)C(=O)N1CCC(C(=O)NCC(=O)Nc2ccc3ccccc3c2)(c2ccccc2)CC1 [Compound 53o]	–	> 1000 nM	< 1000 nM	IC50 ([4]; Table 3 Piperidine Analogs): > 1000 nM; IC50 ([5]; Table 3 Piperidine Analogs): > 1000 nM
N[C@@H](CS)C(=O)N1CCC(C(=O)NCc2cccc(OC(F)(F)F)c2)(c2ccccc2)CC1 [Compound 53p]	> 1000 nM	< 1000 nM	< 100 nM	–
N[C@@H](CS)C(=O)N1CCC(C(=O)NCc2ccc3c(c2)OCO3)(c2ccccc2)CC1 [Compound 53q]	> 1000 nM	> 1000 nM	< 100 nM	–
N[C@@H](CS)C(=O)N1CCC(C(=O)NCc2ccc(F)cc2F)(c2ccccc2)CC1 [Compound 53r]	> 1000 nM	> 1000 nM	< 100 nM	–
COc1ccccc1CNC(=O)C1(c2ccccc2)CCN(C(=O)[C@@H](N)CS)CC1 [Compound 53u]	> 1000 nM	> 500 nM	< 100 nM	–
N[C@@H](CS)C(=O)N1CCC(C(=O)NCc2cccc3ccccc23)(c2ccccc2)CC1 [Compound 53w]	> 1000 nM	> 500 nM	< 100 nM	–
N[C@@H](CS)C(=O)N1CCC(C(=O)NC2c3ccccc3-c3ccccc32)(c2ccccc2)CC1 [Compound 53z]	> 1000 nM	> 1000 nM	< 100 nM	IC50 ([4]; Table 3 Piperidine Analogs): > 1000 nM; IC50 ([5]; Table 3 Piperidine Analogs): > 1000 nM
NC[C@H](NC(=O)[C@@H](N)CS)C(=O)NCc1cccc2ccccc12 [Compound 89a]	–	–	–	IC50 ([4]; Table 1): > 1000 nM; IC50 ([4]; Table 1 Peptide Analogs): > 1000 nM; MIC [6]: > 200 µg/mL; MIC (μg/mL) C alb [6]: >200 µg/mL; IC50 ([2]; Table 1): > 1000 nM; IC50 ([2]; Table 1 Peptide Analogs): > 1000 nM; IC50 ([3]; Table 1): < 1000 nM; IC50 ([3]; Table 1 Peptide Analogs): < 1000 nM
NC[C@H](NC(=O)[C@@H](N)CS)C(=O)NCc1cccc(-c2ccccc2)c1 [Compound 89b]	–	–	–	MIC [6]: > 200 µg/mL; MIC (μg/mL) C alb [6]: >200 µg/mL; IC50 ([2]; Table 1): > 1000 nM; IC50 ([2]; Table 1 Peptide Analogs): > 1000 nM; IC50 ([3]; Table 1): < 500 nM; IC50 ([3]; Table 1 Peptide Analogs): < 500 nM
NC[C@H](NC(=O)[C@@H](N)CS)C(=O)N1CCC(C(=O)NCc2ccncc2)(c2ccccc2)CC1 [Compound 89c]	–	–	–	IC50 ([4]; Table 1): > 1000 nM; IC50 ([4]; Table 1 Peptide Analogs): > 1000 nM; IC50 ([5]; Table 1): > 1000 nM; IC50 ([5]; Table 1 Peptide Analogs): > 1000 nM; IC50 ([2]; Table 1): > 1000 nM; IC50 ([2]; Table 1 Peptide Analogs): > 1000 nM; IC50 ([3]; Table 1): < 1000 nM; IC50 ([3]; Table 1 Peptide Analogs): < 1000 nM
C[C@H](N)C(=O)N[C@@H](CS)C(=O)N1CCC(C(=O)NCc2ccncc2)(c2ccccc2)CC1 [Compound 96a]	–	> 1000 nM	> 1000 nM	IC50 [7]: > 1000 nM; IC50 [8]: > 1000 nM
C[C@H](N)C(=O)N[C@@H](C)C(=O)N[C@@H](CS)C(=O)N1CCC(C(=O)NCc2ccncc2)(c2ccccc2)CC1 [Compound 96b]	–	> 1000 nM	< 1000 nM	IC50 [7]: > 1000 nM; IC50 [8]: > 1000 nM
